Values of other authors as cited in patent publication EP4702989A1, “DRUG FOR TREATING LOCALLY ADVANCED UNRESECTABLE OR METASTATIC COLORECTAL CANCER AND USE THEREOF” (Shenzhen Chipscreen Biosciences Co., Ltd., priority 2023, dated 2024).
Like-named read-outs stand apart in the source and are kept apart here.

Key:
[1] = FRESCO; >=3 treatment lines; sample size 278; 2018 JAMA
[2] = FRESCO-2; >=3 treatment lines; sample size 461; 2023 Lancet
[3] = CORRECT; >=2 treatment lines; sample size 505; 2013 Lancet
[4] = CONCUR; >=3 treatment lines; sample size 136; 2015 Lancet

CNC(=O)c1c(C)oc2cc(Oc3ncnc4cc(OC)c(OC)cc34)ccc12 [Fruquintinib]
Median PFS (months) [1]: 3.7 months | ORR [1]: 4.7% | Median PFS (months) [2]: 3.7 months | ORR [2]: 1.5%

CNC(=O)c1cc(Oc2ccc(NC(=O)Nc3ccc(Cl)c(C(F)(F)F)c3)c(F)c2)ccn1 [Regorafenib]
Median PFS (months) [3]: 1.9 months | ORR [3]: 1.0% | Median PFS (months) [4]: 3.2 months | ORR [4]: 4.4%
